According to PubChem BioAssay (NCI):
“And” between values parts separate entries of the source, which are not always exact repeats. Equal entries are not always repeated.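 Compound exposure: 48 hours, 5 concentrations, 96-well plates. GI50: concentration for 50% inhibition of growth. At the TGI there is no net growth.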

Legend:
Experiment in all cases: NCI tumour cell line growth inhibition, 48 h
[1] = test system: A498 renal
[2] = test system: LOX IMVI melanoma
[3] = test system: OVCAR-3 ovarian
[4] = test system: OVCAR-5 ovarian
[5] = test system: SR leukemia
[6] = test system: SF-539 CNS
[7] = test system: HS 578T breast
[8] = test system: IGROV1 ovarian
[9] = test system: NCI-H522 lung
[10] = test system: CAKI-1 renal

| SMILES | GI50 [1] | TGI [1] | GI50 [2] | TGI [2] | GI50 [3] | TGI [3] | GI50 [4] | TGI [4] | GI50 [5] | TGI [5] | GI50 [6] | TGI [6] | GI50 [7] | TGI [7] | GI50 [8] | TGI [8] | GI50 [9] | TGI [9] | GI50 [10] | TGI [10] |
| --- | --- | --- | --- | --- | --- | --- | --- | --- | --- | --- | --- | --- | --- | --- | --- | --- | --- | --- | --- | --- |
| O=C(c1ccc(O)cc1)c1ccc(C(=O)c2ccc(O)cc2)cc1 | > 100 µM | > 100 µM | > 100 µM | > 100 µM | > 100 µM | > 100 µM | > 100 µM | > 100 µM | > 100 µM | > 100 µM | 80 µM | > 100 µM | 27.4 µM | > 100 µM | 6.32 µM | > 100 µM | 8.05 µM | > 100 µM |  |  |
| CCN(CC)c1ccc(/C=C/C(=O)c2cccc(NS(C)(=O)=O)c2)cc1 | 5.39 µM | > 100 µM | 3.13 µM | > 100 µM | 6.37 µM | > 100 µM | 35 µM | > 100 µM |  |  | 4.94 µM | > 100 µM | 19.3 µM | > 100 µM | > 100 µM | > 100 µM | 87.7 µM | > 100 µM | 7.97 µM | > 100 µM |
| CCOC(=O)CNC(SC)=C(C#N)C#N |  | > 100 µM |  | > 100 µM |  | > 100 µM |  | > 100 µM |  | > 100 µM |  | > 100 µM |  |  |  | > 100 µM |  | > 100 µM |  | > 100 µM |
| CCOC(=O)c1c(-c2[nH]c(C(=O)OCc3ccccc3)c(C)c2C(=O)OCC)[nH]c(C(=O)OCc2ccccc2)c1C |  | > 100 µM |  | > 100 µM |  | > 100 µM |  | > 100 µM |  | > 100 µM |  | > 100 µM |  |  |  | > 100 µM |  | > 100 µM |  | > 100 µM |
| O=C(O)c1cn(C2CC2)c2cc(N3CCN(S(=O)(=O)c4ccc(Cl)c(Cl)c4)CC3)c(F)cc2c1=O | 2.91 µM | > 100 µM |  |  | 3.9 µM | 44 µM | 4.14 µM | > 100 µM |  |  | 3.39 µM | > 100 µM | 4.26 µM | > 100 µM |  |  |  |  |  |  |
| Cc1c(N2C(=O)/C(=C\c3ccc(O)cc3)N=C2c2ccccc2)c(=O)n(-c2ccccc2)n1C | > 100 µM | > 100 µM | > 100 µM | > 100 µM | > 100 µM | > 100 µM | > 100 µM | > 100 µM |  |  | > 100 µM | > 100 µM | > 100 µM | > 100 µM | > 100 µM | > 100 µM | > 100 µM | > 100 µM | > 100 µM | > 100 µM |
| Cc1cn(C2C=CC(=O)C(C)O2)c(=O)[nH]c1=O (stereo not drawn) |  | > 100 µM |  | 26.6 µM |  | 31.4 µM |  |  |  | 43.8 µM |  | 32.8 µM |  |  |  | 34.4 µM |  | 32.4 µM |  | 31.5 µM |
| O=C1Nc2ccccc2C12CC(c1ccccc1)=NN2 (stereo not drawn) | 1.85 µM | 9.24 µM | 6.46 µM | 87.4 µM | 5.1 µM | 80.7 µM | 16.4 µM | 96.1 µM | 3.64 µM | 34.8 µM | 3.4 µM | 15 µM |  |  | 5.75 µM | 75.9 µM | 4.66 µM | 76 µM | 7.57 µM | > 100 µM |
| COc1cc(NCC(C#N)C#N)ccc1N=Nc1ccc([N+](=O)[O-])cc1 |  | > 100 µM |  | > 100 µM |  | > 100 µM |  | > 100 µM |  | > 100 µM |  | > 100 µM |  |  |  | > 100 µM |  | > 100 µM |  | > 100 µM |
| COc1cc(Nc2ncc3c(n2)-c2ccc(Cl)cc2C(c2c(F)cccc2OC)=NC3)ccc1C(=O)O | 0.211 µM | 2.55 µM | 0.91 µM | 21.3 µM | 7.33 µM | 34.4 µM | 7.54 µM | > 77.7 µM |  |  | 0.503 µM | 20 µM | 3.3 µM | > 71.3 µM | 2.19 µM | 19.3 µM | 0.501 µM | 3.88 µM | 1.66 µM | 29.3 µM |
| CC1=C[C@H]2c3c(c(O)c(O)c4oc5cc(O)cc(O)c5c(=O)c34)[C@H](c3cc(O)c(O)c4oc5cc(O)cc(O)c5c(=O)c34)[C@H]2C(C)(C)C1 | 1.89 µM | 4.63 µM | 1.12 µM and 0.87 µM | 2.36 µM and 2.19 µM | 1.7 µM and 2 µM | 4.02 µM and 7.54 µM | 2.71 µM and 2.1 µM | 10.5 µM and 6.58 µM |  |  | 1.16 µM and 1.69 µM | 3.89 µM and 4.79 µM | 2.07 µM and 1.49 µM | 8.9 µM and 7.39 µM | 1.36 µM and 2.05 µM | 5.26 µM and 17 µM | 1.3 µM and 1.34 µM | 3.04 µM and 4.56 µM | 3.45 µM and 2.18 µM | 11.1 µM and 6.53 µM |
| COc1cc(C/C=C/c2ccccc2)c(OC)cc1O |  | > 100 µM |  | 37.4 µM |  | 51.1 µM |  | 60.6 µM |  |  |  | 37.6 µM |  | 90 µM |  | 37.2 µM |  | 40.9 µM |  | 65.7 µM |
| C#CCOCn1cnc2ncnc(Cl)c21 |  | > 100 µM |  | > 100 µM |  | > 100 µM |  | > 100 µM |  | > 100 µM |  | > 100 µM |  |  |  | > 100 µM |  | > 100 µM |  | > 100 µM |
| Cc1cc(N(CCCNc2ccnc3cc(Cl)ccc23)Cc2cccs2)nc(Cl)n1 | 2.16 µM | 11.7 µM | 2.79 µM | 11.7 µM | 6.43 µM | 21.4 µM | 5.9 µM | 24.3 µM |  |  | 7.02 µM | 23.1 µM | 9.29 µM | 41.5 µM | 2.9 µM | 18.9 µM | 2.9 µM | 18.7 µM |  |  |
| O=C(CCCn1ccnc1[N+](=O)[O-])NCCn1cnc([N+](=O)[O-])c1 |  |  |  | > 100 µM |  | > 100 µM |  | > 100 µM |  | > 100 µM |  | > 100 µM |  | > 100 µM |  | > 100 µM |  | > 100 µM |  | > 100 µM |
| C[C@@H]1CN(Cc2ccc(/C=C/c3n[nH]c4ccc5nc(-c6cn[nH]c6C(F)(F)F)c6c(c5c34)CCCC6)cc2)C[C@H](C)O1 | 1.21 µM | 6.51 µM | 2.33 µM | 10.8 µM | 2.96 µM | 14.6 µM | 4.06 µM | 16.2 µM |  |  | 2.97 µM | 14.7 µM | 2.05 µM | 10.8 µM | 1.33 µM | 10.7 µM | 2.02 µM | 16.2 µM | 2.29 µM | 11.5 µM |
| COC1=NN2C(OC)(c3ccccc3)c3c(-c4ccccc4)sc(-c4ccccc4)c3C2(c2ccccc2)S1 (stereo not drawn) |  | > 100 µM |  | > 100 µM |  | > 10 µM |  | > 100 µM |  | > 100 µM |  | > 100 µM |  |  |  | > 100 µM |  | > 100 µM |  | > 100 µM |
